Patent US20260060960A1, “GAMMA-SECRETASE INHIBITORS FOR USE IN THE TREATMENT OF INHERITED EPIDERMOLYSIS BULLOSA” (OSPEDALE PEDIATRICO BAMBINO GESU', priority 2022, published 2026)

Experiments:
[1] = test system: α-SMA, TAGLN, CNN1, JAG1; test: Immunoblotting of myofibroblast/fibrotic markers in RDEB fibroblasts; type: cell-based, human; conditions: RDEB-FBs, 24 h, absence and presence of TGF-β1
Description: Whole-cell lysates were obtained in radioimmunoprecipitation assay (RIPA) buffer (Sigma-Aldrich) supplemented with phosphatase- and protease inhibitors (Merck). Different amounts of protein lysates were run under reducing conditions by using 4-12% gradient precast gels (Thermo Fisher Scientific) or hand-casting polyacrylamide gels (4-8%), depending on the protein to be assayed. Amersham™ Protran® Premium nitrocellulose membranes (pore size 0.2 μm) (Merck) were immunoblotted with primary antibodies indicated in Table 3 and incubated with horseradish peroxidase-linked secondary antibodies.
Detection was performed using Cytiva ECL™ Prime Western Blotting System (Merck) or SuperSignal West Femto (Thermo Fisher Scientific), depending on the protein to be assayed. Antibody against Notch1 (all forms; clone bTAN20) was obtained from the Developmental Studies Hybridoma Bank (DSHB) at the University of Iowa (DSHB, Iowa City, IA, USA). GAPDH (clone 14C10), Jagged1 (clone 28H8) and NOTCH1 intracellular domain (clone D3B8) were obtained from Cell Signaling (Cell Signaling Technology Inc., Beverly, MA, USA). Antibodies against TAGLN (clone #859112) and CNN1 (clone #836701) were from R&D Systems (R&D Systems, Inc. Minneapolis, MN, USA). Antibody against α-SMA (clone 1A4) was purchased from Sigma-Aldrich. Antibody against lamin B1 (LMNB1) was from Abcam (Cambridge, UK). […]

[2] = test system: α-SMA, CNN1, TAGLN, JAG1, HES1, POSTN, Pri-miR-143/145 mRNA; test: Real-time PCR of contractile/fibrotic markers in RDEB fibroblasts; type: cell-based, human; conditions: RDEB-FBs
Description: Total was extracted by TRIzol (Thermo Fisher Scientific) by monolayer fibroblast cultures, following manufacturer's instructions. RNA was reverse transcribed and amplified by using Power SYBR Green RNA-to-Ct 1-Step Kit (Thermo Fisher Scientific) on QuantStudio™ 7 Pro Real-Time PCR System (Thermo Fisher Scientific). Primer pairs used in this study are listed in Table 2: ACTA2, actin alpha 2, smooth muscle; CNN1, calponin; COL1A1, collagen type I alpha 1 chain; GAPDH, glyceraldehyde-3-phosphate dehydrogenase; HES1, hes family bHLH transcription factor 1; JAG1, jagged canonical Notch ligand 1; NOTCH1, notch receptor 1; POSTN, periostin; TAGLN, transgelin.
Relative mRNA expression levels were measured by the 2−ΔΔCT method. Hypoxanthine phosphoribosyltransferase 1 (HPRT1) was used as housekeeping gene to normalize mRNA expression levels.

SMILES: CCC[C@H](N[C@H]1CCc2cc(F)cc(F)c2C1)C(=O)Nc1cn(C(C)(C)CNCC(C)(C)C)cn1 [PF-03084014, (S)-2-((S)-5,7-difluoro-1,2,3,4-tetrahydronaphthalen-3-ylamino)-N-(1-(2-methyl-1-(neopentylamino)propan-2-yl)-1H-imidazol-4-yl)pentanamide]
- protein levels of contractile and fibrotic markers (immunoblotting) [1]: down-regulation of the prototypical contractile and fibrotic markers, including JAG1
- mRNA levels of HES1, periostin and Pri-miR-143/145 [2]: context-dependent downregulation
- mRNA levels of contractile/fibrotic markers (real-time PCR) ([2]; basal conditions and presence of TGF-β1): down-regulation of a selection of contractile/fibrotic markers, including α-SMA, CNN1, TAGLN and JAG1
